# Assay results published in patent US20260226049A1, “NITROGEN-CONTAINING HETEROCYCLIC COMPOUND, PREPARATION METHOD THEREFOR, AND USE THEREOF” (BIVISION PHARMACEUTICALS, INC, priority 2023, published 2026).
# Read-outs that look alike come from different tables or passages of the source.
# Columns and labels:
# HT1080 2 #FAP cells = assay: Tissue distribution in FAP-positive tumor-bearing mice; assay type: in vivo, mice (Balb/c Nude); conditions: 24 hours after tail vein injection, approximately 3.7 MBq/mouse
# Source text: Tissue distribution in FAP-positive tumor-bearing mice: 2×10^6 HT1080 2 #FAP cells (in 50% Matrigel, Corning) were subcutaneously inoculated into the right shoulder of mice (Balb/c Nude, Vital River) aged approximately 6-9 weeks. When the tumors grew to approximately 150-350 mm^3 in size, the following “7. General ^177Lu Labeling Experimental Method” was used to label JHH3, JHH8, JHH9, JHDB7, and JHDB8 compounds. Subsequently, ^177Lu-JHH3, ^177Lu-JHH8, ^177Lu-JHH9, ^177Lu-JHDB7, ^177Lu-JHDB8, and ^177Lu-OncoFAP DOTAGA radiolabeled compounds were injected into the mice via the tail vein (approximately 3.7 MBq/mouse). 24 hours after administration, the animals were euthanized by CO2 inhalation, and blood and organs (liver, kidney, muscle, tumor) were collected after euthanasia.
# After organ collection, the samples were rinsed twice with deionized water and dried, then placed in pre-weighed tubes and weighed again to calculate the sample weight. The samples were measured on the day of collection. All blood samples and tissue samples were measured for radioactive counts using a gamma counter.
# FAP protein = target: T1, FAP protein (Homo sapiens, UniProt Q12884); assay: Biacore test of ligand binding to FAP protein; conditions: FAP protein on SA chip, 15° C., 1:1 binding model
# T1 construct: purchased Sinobiological
# T1 sequence (Q12884 1-760): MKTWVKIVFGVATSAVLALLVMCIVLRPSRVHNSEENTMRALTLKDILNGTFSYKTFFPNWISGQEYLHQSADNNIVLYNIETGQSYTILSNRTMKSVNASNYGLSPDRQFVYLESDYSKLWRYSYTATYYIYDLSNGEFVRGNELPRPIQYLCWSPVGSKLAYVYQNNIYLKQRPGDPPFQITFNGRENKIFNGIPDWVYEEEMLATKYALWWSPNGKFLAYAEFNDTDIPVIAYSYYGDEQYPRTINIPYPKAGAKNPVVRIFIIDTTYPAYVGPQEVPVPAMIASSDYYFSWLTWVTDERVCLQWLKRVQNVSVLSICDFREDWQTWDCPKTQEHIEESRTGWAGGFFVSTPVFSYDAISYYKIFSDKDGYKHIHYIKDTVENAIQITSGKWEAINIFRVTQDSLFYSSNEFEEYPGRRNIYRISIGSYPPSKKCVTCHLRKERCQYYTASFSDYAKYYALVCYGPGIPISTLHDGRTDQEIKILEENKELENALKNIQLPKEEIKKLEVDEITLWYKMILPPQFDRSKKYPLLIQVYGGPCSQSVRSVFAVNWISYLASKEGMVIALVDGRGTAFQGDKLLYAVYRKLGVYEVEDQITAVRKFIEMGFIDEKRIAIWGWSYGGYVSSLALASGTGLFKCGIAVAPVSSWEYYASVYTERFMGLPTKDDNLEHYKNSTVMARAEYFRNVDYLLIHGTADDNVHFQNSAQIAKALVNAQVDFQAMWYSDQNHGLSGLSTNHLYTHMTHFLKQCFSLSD
# Description: The Biacore 8K (Cytiva) instrument was used to detect ligand binding of the FAP protein (Sinobiological). The FAP protein was captured on the SA chip. Before ligand immobilization (flow paths 1 and 2, flow rate of 10 μL/min), the FAP protein (10 μg/mL, flow rate of 5 μL/min, injection time of 600 s) was immobilized on flow path 2 using running buffer, and the sensor surface was conditioned with three consecutive injections of 1 M NaCl in 50 mM NaOH. After each ligand injection, additional washing was carried out with isopropanol in 1 M NaCl and 50 mM NaOH (flow paths 1 and 2, flow rate of 10 μL/min, injection time of 60 s).
# The test compounds were dissolved in 100% dimethyl sulfoxide and diluted to 10 mM, then further diluted in the assay buffer (PBS, pH 7.4, 1 mM TCEP ([…]), 0.05% P20, 2% dimethyl sulfoxide) to appropriate maximum concentrations. The analyte was run under the following conditions: analysis temperature=15° C., analysis step=all set to LMW kinetics; cycle type=single cycle (90 s contact time, 1800 s dissociation time, 30 μL/min flow rate, flow channels 1, 2); flow channel detection=2-1). Data evaluation was performed using Biacore Insight Evaluation Software, and the data were fitted to a 1:1 binding model.
# The Biacore results are shown in Table 1: pKD=−Log KD, where KD is the binding affinity of the compound to the FAP protein as measured by Biacore. The binding affinity is expressed by KD (M)=Kd(1/s)/Ka(1/Ms). Where A: pKD>8, B: 7<pKD<8, C: 6<pKD<7, D: pKD<6.
# HT1080 8 #cells = assay: Cell competitive binding assay against ^177Lu-radiolabeled FAPi-46
# Description: (1) HT1080 8 #cells in the logarithmic growth phase were prepared into a cell suspension, and the cell density was adjusted to 1×10^4/mL. 1 mL of the suspension was seeded into a 24-well cell culture plate. The plate was incubated overnight in a 37° C. incubator.
# (2) The cell culture medium was aspirated, and the cells were washed once with PBS, followed by the addition of 975 μL of additive-free medium.
# (3) To each well, 25 µL of ^177Lu-radiolabeled FAPi-46 (Nanchang Tanzhen Biotechnology Co., Ltd., CAS: 2374782-04-2) at a fixed concentration (final concentration in culture medium: 1.35 μCi/mL) and varying concentrations (final concentrations in culture medium: 1000 ng/mL, 100 ng/ml, 10 ng/ml, 1 ng/mL, 0.1 ng/ml, 0.01 ng/mL, 0.001 ng/mL, 0 ng/ml) of unlabeled test compounds JHH8, JHDB8, and JHH9 were added.
# (4) The mixture was incubated on ice for 2 hours.
# (5) The cells were washed three times with ice-cold PBS.
# (6) The cells were lysed with 0.5 mL of 1 M sodium hydroxide, washed twice with 0.5 mL of PBS, and the sodium hydroxide solution (0.5 mL) and PBS solutions (0.5 mL×2) were collected for uptake counting.
# The control compound was OncoFAP-DOTAGA (structural formula: […]
# The cell competitive binding of compounds JHH5, JHH4, JHH10, JHH8, H4b, H5b, and H8b was tested in the same batch using the above method, and the experimental results are shown in Table 3 and FIG. 3.
# [1] = EC50 (ng/mL) converted with molecular weight, read-out: EC50
# [2] = competition with ^177Lu-FAPi-46, on ice 2 hours
SMILES,uptake in other organs compared to the reference compound (HT1080 2 #FAP cells),uptake in tumor tissues compared to the reference compound (HT1080 2 #FAP cells),Kd (FAP protein),EC50 (HT1080 8 #cells; [1]),EC50 (HT1080 8 #cells; [2])
"N#C[C@@H]1CC(F)(F)CN1C(=O)CNC(=O)c1cc2c(s1)CCN(C(=O)CCC(=O)NCCNC(=O)CCC(C(=O)O)N1CCN(CC(=O)O)CCN(CC(=O)O)CCN(CC(=O)O)CC1)C2 (stereo partly drawn) [^177Lu-JHH3, metal not drawn]",lower uptake in other organs,higher uptake in tumor tissues,,,
N#C[C@@H]1CC(F)(F)CN1C(=O)CNC(=O)c1cccc2c1CCCN2C(=O)CCC(=O)NCCNC(=O)CCC(C(=O)O)N1CCN(CC(=O)O)CCN(CC(=O)O)CCN(CC(=O)O)CC1 (stereo partly drawn) [JHH10],,,< 10 nM,3.56 nM,3.38 ng/mL
N#C[C@@H]1CC(F)(F)CN1C(=O)CNC(=O)c1ccc2c(c1)CCCN2 [Compound H8b],,,,9.24 nM,3.219 ng/mL
N#C[C@@H]1CC(F)(F)CN1C(=O)CNC(=O)c1cccc2c1CNCC2 [Compound H4b],,,,34.2 nM,11.89 ng/mL
N#C[C@@H]1CC(F)(F)CN1C(=O)CNC(=O)c1cccc2c1CCNC2 [Compound H5b],,,,452 nM,157.5 ng/mL
N#C[C@@H]1CC(F)(F)CN1C(=O)CNC(=O)c1cccc2c1CN(C(=O)CCC(=O)NCCNC(=O)CCC(C(=O)O)N1CCN(CC(=O)O)CCN(CC(=O)O)CCN(CC(=O)O)CC1)CC2 (stereo partly drawn) [JHH4],,,,1.3 nM,1.231 ng/mL
N#C[C@@H]1CC(F)(F)CC1C(=O)CNC(=O)c1ccc2c(c1)CCCN2C(=O)CCC(=O)NCCNC(=O)CCC(C(=O)O)N1CCN(CC(=O)O)CCN(CC(=O)O)CCN(CC(=O)O)CC1 (stereo partly drawn) [JHH8],,,< 10 nM,14.5 nM,13.77 ng/mL
"N#C[C@@H]1CC(F)(F)CN1C(=O)CNC(=O)c1ccnc2c(NC(=O)CCC(=O)NCCNC(=O)CCC(C(=O)O)N3CCN(CC(=O)O)CCN(CC(=O)O)CCN(CC(=O)O)CC3)cccc12 (stereo partly drawn) [OncoFAP-DOTAGA, reference compound]",,,,2.81 nM,2.699 ng/mL
